According to patent US20230233425A1, “USE OF VOLATILE COMPOSITIONS TO LIMIT OR ELIMINATE THE PERCEPTION OF MALODOR” (Firmenich SA, priority 2017, published 2023):
Values joined by “and” are separate entries in the source; they are usually repeats but may differ in a detail not shown here. Equal values may be shown once.

How the values were obtained:
[1] = tested on: 1-octen-3-ol receptors OR2W1, Olfr93, Olfr120, Olfr398; assay: Antagonists of 1-octen-3-ol receptors (Example 11); type: cell-based, mouse and human; set-up: Inhibition(%): concentration or dose not given beside the values; settings: Table 19
[2] = tested on: geonol earthy/moss odor perception; assay: Human sensory performance of test compounds with and without geonol; type: in vivo; settings: for % Earthy/Moss Odor: Test Compound Only
Description: Sensory Evaluation: Five 16 oz glass jars containing either REF (geonol only), geonol only control, antagonist only, mixture of geonol and isointense antagonist, or mixture of geonol and low intensity antagonist were presented to the panelists (last four samples were randomized across panelists). The panelists were asked to familiarize themselves with the earthy/moss odor quality from the REF jar first, then rate the pleasantness, earthy/moss odor intensity and overall odor intensity of the next four samples on a 0-10 linear scale. The inter-stimulus interval between the samples was two minutes to avoid adaptation. […]
The results are shown in Tables 16 and 17, and FIGS. 3 to 5.

[3] = tested on: geonol receptors Olfr339, Olfr1487, Olfr1A1, OR11A1, Olfr96; assay: Antagonists of geonol receptors (Example 11); type: cell-based, mouse and human; set-up: Inhibition(%): concentration or dose not given beside the values; settings: Table 18
[4] = tested on: OR2W1 or the OR1A1 olfactory receptor; assay: 1-octen-3-ol olfactory receptor antagonist cell-based dose-response vs 1-octen-3-ol EC80; settings: for IC50: 1-octen-3-ol at EC80; for % Inhibition: maximum inhibition normalized to baseline agonist activity
Description: Each cell line was screened with a volatile compound library for their inhibitory properties and potential 1-octen-3-ol smell inhibition.
Single concentration monitoring of the 1-octen-3-ol induced cell activity in the presence or absence of a test compound allowed for the identification of compounds with a putative suppression or inhibitory effect.

[5] = biological target: T1, OR51E1 olfactory receptor (Homo sapiens, UniProt Q8TCB6); assay: Butyric acid olfactory receptor antagonist cell-based dose-response vs butyric acid EC80; settings: butyric acid at EC80; Table 5
T1 construct: expressed in transfected cells
T1 sequence (Q8TCB6 1-318): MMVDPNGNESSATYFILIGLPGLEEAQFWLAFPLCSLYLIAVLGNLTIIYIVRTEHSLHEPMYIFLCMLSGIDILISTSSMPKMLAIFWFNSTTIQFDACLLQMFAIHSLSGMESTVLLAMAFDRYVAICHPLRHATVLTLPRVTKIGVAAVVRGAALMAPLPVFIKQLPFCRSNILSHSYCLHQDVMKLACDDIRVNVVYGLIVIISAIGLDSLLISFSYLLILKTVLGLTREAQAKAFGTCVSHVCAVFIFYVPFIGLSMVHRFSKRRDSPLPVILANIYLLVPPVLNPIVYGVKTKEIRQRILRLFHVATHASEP

[6] = Low Dilution Test Compound + Geonol (0.1%)
[7] = Medium Dilution Test Compound + Geonol (0.1%)

Row | Compound | IC50 [1] [µM] | IC50 [3] | Inhibition(%) [1] [%] | Inhibition(%) [3] [%] | further results
1 | CC(=O)c1c(C)c([N+](=O)[O-])c(C(C)(C)C)c([N+](=O)[O-])c1C | 84.7 |  | 98 |  | 
2 | CCC(=CC[C@@H]1CC=C(C)C1(C)C)CO |  |  |  |  | % Earthy/Moss Odor Remaining [2, 6]: 85.20%; % Earthy/Moss Odor Remaining [2, 7]: 64.30%; % Earthy/Moss Odor [2]: 34.90%
3 | CC1CCC2C(C)(C)C3CC12CC1OC13C (centres unmarked) | 85.6 |  | 91 |  | 
4 | CC1COCc2cc3c(cc21)C(C)(C)C(C)C3(C)C (centres unmarked) | 65.2 | 894 µM | 84 | 56 | 
5 | C=C1CC[C@H]2O[C@]2(C)CC[C@@H]2[C@@H]1CC2(C)C |  |  |  |  | IC50 [4]: 25.1 µM; % Inhibition [4]: 123.63%; IC50 [5]: 97 µM
6 | CC1=C[C@@H](C)[C@@H](C=O)CC1 |  |  |  |  | % Earthy/Moss Odor Remaining [2, 6]: 80.60%; % Earthy/Moss Odor Remaining [2, 7]: 71.50%; % Earthy/Moss Odor [2]: 48.10%
7 | C[C@@H]1CC[C@]2(O)C(C)(C)[C@H]3CC[C@@]2(C)[C@@H]1C3 |  |  |  |  | % Earthy/Moss Odor Remaining [2, 6]: 104.60%; % Earthy/Moss Odor Remaining [2, 7]: 129.80%; % Earthy/Moss Odor [2]: 94.10%
8 | CC(=O)OC1(C)CCC23CC1C(C)(C)C2CCC3C (centres unmarked) | 72.6 |  | 52 |  | 
9 | Cc1cc2c(cc1C=O)C(C)(C)[C@H](C)[C@@H](C)C2(C)C | 83.7 |  | 64 |  | 
10 | 1-(2,2-dimethyl-6-methylidenecyclohexyl)pent-1-en-3-one; 3-methyl-4-(2,6,6-trimethylcyclohex-2-en-1-yl)but-3-en-2-one; 1-(2,6,6-trimethylcyclohexen-1-yl)pent-1-en-3-one; 1-(2,6,6-trimethylcyclohex-2-en-1-yl)pent-1-en-3-one | 66.8 | 136 µM | 56 | 49 | 
11 | CC(=O)/C=C/C1C(C)=CCCC1(C)C (racemic) [(+−)-(3E)-4-(2,6,6-trimethyl-2-cyclohexen-1-yl)-3-buten-2-one] | 462 |  | 79 |  | 
12 | CC1(C)C2C[C@H]3CCC(=O)C=C3[C@@H]1C2 (single isomer, unassigned; (+)) |  |  |  |  | IC50 [4]: 194 µM; % Inhibition [4]: 128.51%
13 | CC=CC(=O)C1=C(C)CCCC1(C)C [1-(2,6,6-trimethylcyclohexen-1-yl)but-2-en-1-one] | 477 |  | 72 |  | 
14 | CC(CCCC(C)(C)O)CC(O)n1ccc2ccccc21 (centres unmarked) [1-indol-1-yl-3,7-dimethyloctane-1,7-diol] | 175 | 201 µM | 46 | 46 | 
15 | CC1C(=O)c2ccccc2C1(C)C (centres unmarked) [2,3,3-trimethyl-2H-inden-1-one] |  |  |  |  | IC50 [4]: 75.6 µM; % Inhibition [4]: 128.39%
16 | c1ccc(CCCc2ccccn2)cc1 [2-(3-phenylpropyl)pyridine] | 153 | 41 µM | 31 | 196 | 
17 | C=CC(C)(CCC=C(C)C)OC(=O)C(C)C (centres unmarked) [3,7-dimethylocta-1,6-dien-3-yl 2-methylpropanoate] | 57.1 |  | 88 |  | 
18 | CC(C)=CCCC(C)=CCO [3,7-dimethylocta-2,6-dien-1-ol] | 190 |  | 18 |  | 

Row | Compound | IC50 [1] [µM] | IC50 [3] | Inhibition(%) [1] [%] | Inhibition(%) [3] [%] | further results
19 | CC(C)(C)Cc1cccnc1 [3-(2,2-dimethylpropyl)pyridine] | 117 |  | 25 |  | 
20 | CC(=O)C(C)=CC1C(C)=CCCC1(C)C (centres unmarked) [3-methyl-4-(2,6,6-trimethylcyclohex-2-en-1-yl)but-3-en-2-one] | 120 | 110 µM | 37 | 58 | 
21 | CC1=CCC(CCC(C)C(C)O)C1(C)C (centres unmarked) [3-methyl-5-(2,2,3-trimethylcyclopent-3-en-1-yl)pentan-2-ol] |  | 28.8 µM |  | 32 | 
22 | CCCCCCCC1CCCC(=O)O1 (centres unmarked) [6-heptyloxan-2-one] |  | 197 µM |  | 29 | 
23 | CCCCC[C@H]1CCC[C@H]1O [(1~{R},2~{S})-2-pentylcyclopentan-1-ol] |  | 195 µM and 147 µM |  |  | 
24 | CC(=O)OC1CCC(C(C)(C)C)CC1 (centres unmarked) [(4-{tert}-butylcyclohexyl) acetate] | 93.8 |  | 79 |  | 
25 | O=C1CCCCCCC/C=C/CCCCCCC1 [(9<I>E</I>)-cycloheptadec-9-en-1-one] |  |  |  |  | IC50 [4]: 210 µM; % Inhibition [4]: 97.22%
26 | O=C1CCCCCCCCCCC1 [Clyclododecanone, cyclododecanone] |  |  |  |  | IC50 [4]: 8.79 µM; % Inhibition [4]: 118.47%
27 | CC(CCO)CCc1ccccc1 (centres unmarked) [Compound 3-methyl-5-phenylpentan-1-ol, 3-methyl-5-phenylpentan-1-ol] |  |  |  |  | % Earthy/Moss Odor [2]: 11.30%
28 | O=C1CCC=CCCCCCCCCCC1 [Cyclopentadec-4-en-1-one] |  |  |  |  | IC50 [4]: 156 µM; % Inhibition [4]: 90.98%
29 | O=C1CCCCCCCCCCCCCCO1 [OXACYCLOHEXADECAN-2-ONE] |  |  |  |  | IC50 [4]: 32.1 µM; % Inhibition [4]: 111.31%
30 | CCCCCO [Pentanol, 1-, pentanol] |  |  |  |  | IC50 [4]: 28.3 µM; % Inhibition [4]: 94.31%
31 | CC(C)CC(=O)OCc1ccccc1 [benzyl 3-methylbutanoate] |  | 220 µM |  | 41 | 
32 | CCCCCCCC=CC=O [dec-2-enal] |  | 262 µM |  | 40 | 
33 | CCOC(=O)c1ccccc1C(=O)OCC [diethyl benzene-1,2-dicarboxylate] |  | 1580 µM |  | 32 | 
34 | COC(=O)CCCCCCCC/C=C/C=O [methyl (10E)-12-oxo-10-dodecenoate] |  |  |  | 86 | 
35 | OCCc1ccccc1 [phenylethylol, 2-PHENYLETHANOL] |  |  |  |  | % Earthy/Moss Odor [2]: 47.50%

The next lines start with results.

Row | IC50 [1] [µM] | IC50 [3] | Compound | Inhibition(%) [1] [%] | Inhibition(%) [3] [%] | further results
36 | 53.6 |  | CCC(O)COC1CCCCC1C(C)(C)C (centres unmarked) | 13 |  | 
37 | 12.5 | 42.4 µM | CC1C2CC(CC13C=CC(=O)CC3)C2(C)C (centres unmarked) | 87 | 27 | 
38 | 81 | 34.9 µM | CC1CCC2(O)C(C)(C)C3CCC2(C)C1C3 (centres unmarked) | 70 | 68 | 
39 | 54.6 | 36.6 µM | C=C(C[C@H](C)CO)[C@H]1CC=C(C)C1(C)C | 27 | 33 | 
40 | 101 | 27.1 µM | CC1(C)CCCC2(C)C1CCC1(C)OCCC12 (centres unmarked) | 105 | 78 | 
41 |  | 164 µM | CC(=O)O[C@H]1CCCC[C@@H]1C(C)(C)C |  | 56 | % Earthy/Moss Odor [2]: 15.30%
42 |  | 267 µM | CC(=O)O[C@@H]1C(C)(C)CCC[C@@]12CC=C(C)C[C@@H]2C |  | 38 | IC50 [5]: 37.7 µM
43 | 35.9 | 49.1 µM | 1-(2,6,6-trimethylcyclohexen-1-yl)hepta-1,6-dien-3-one; 1-(2,6,6-trimethylcyclohex-2-en-1-yl)hepta-1,6-dien-3-one | 49 | 66 | IC50 [5]: 100 µM
44 |  | 295 µM | 3-acetyloxynonyl acetate; (3-pentyloxan-4-yl) acetate |  | 20 | % Earthy/Moss Odor Remaining [2, 6]: 81.10%; % Earthy/Moss Odor Remaining [2, 7]: 62.50%; % Earthy/Moss Odor [2]: 26.20%
45 | 39.3 | 31.7 µM | O=C1CCCCCCCCCCCC(=O)OCCO1 [1,4-dioxacycloheptadecane-5,17-dione] | 38 | 21 | 
46 |  | 1100 µM | CC(CCO)CCc1ccccc1 (centres unmarked) [3-methyl-5-phenylpentan-1-ol] |  | 37 | 
47 | 72.7 |  | CC(=O)C=CC1=C(C)CCC(C)C1(C)C (centres unmarked) [4-(2,5,6,6-tetramethylcyclohexen-1-yl)but-3-en-2-one] | 23 |  | 
48 | 149 | 118 µM | CC(=O)CCC1=C(C)CCCC1(C)C [4-(2,6,6-trimethylcyclohexen-1-yl)butan-2-one] | 40 | 36 | % Earthy/Moss Odor [2]: 30.30%
49 |  | 517 µM | CC(C)CC(O)Cc1ccccc1 (centres unmarked) [4-methyl-1-phenylpentan-2-ol] |  | 36 | 
50 |  | 386 µM | CC(=O)OC(C)(C)Cc1ccccc1 [(2-methyl-1-phenylpropan-2-yl) acetate] |  | 54 | % Earthy/Moss Odor [2]: 34.00%
51 | 23.4 |  | C[C@@H]1CC=CCCCCCCCCCC(=O)C1 [(3~{R})-3-methylcyclopentadec-5-en-1-one] | 79 |  | IC50 [5]: 53.7 µM
52 |  | 213 µM | COC(=O)c1ccccc1NC=CC(C)CCCC(C)(C)O (centres unmarked) [methyl 2-[(7-hydroxy-3,7-dimethyloct-1-enyl)amino]benzoate] |  | 103 | 
